Experiments:
MEG-01 cells [1] = assay: Cell cycle stage in MEG-01 cells (propidium iodide flow cytometry); type: cell-based, human; settings: 24 h
Protocol: To determine a cell cycle stage, various assays and procedures known to one skilled in the art may be employed. One such procedure uses a CYCLETEST™ PLUS DNA commercial kit (Becton Dickinson, Franklin Lakes, N.J.). Briefly, nuclei from cells are obtained by dissolving the cell membrane in a nonionic detergent, eliminating the cell cytoskeleton and nuclear proteins with trypsin, digesting the cellular RNA with RNase, and stabilizing the nuclear chromatin with spermine. Propidium iodide is added to the cell nuclei and their fluorescence was analyzed in a flow cytometer equipped with electronic doublet discrimination capability (FACSCalibur, Becton Dickinson, Franklin Lakes, N.J.). Accumulation of cells in G0/G1, early S (SE), mid S (SM), late S (SL) or G2/M phases of the cell cycle may be analyzed using MODFIT LT software (Verity Software House Inc., Topsham, Mass.), or other appropriate software.
Exponentially growing MEG-01 cells (2×10^5 cells/ml) were incubated for 24 h with 0 μM (control), 53 μM of SEQ ID NO:2 or 53 μM of SEQ ID NO:6. The cells were collected, centrifuged, and cell cycle stage was determined.

MEG-01 cells [2] = assay: Apoptosis by phosphatidylserine redistribution (FITC-annexin V flow cytometry) in MEG-01 cells; type: cell-based, human; settings: 48 hours; for Percentage of positive cells for phosphatidylserine (cells in apoptosis) in MEG-01 cells: untreated cells 12%; for Induction of apoptosis in MEG-01 cells (in words): translocation of phosphatidylserine, up to 53.0 μM
Protocol: Redistribution of plasma membrane phosphatidylserine is a characteristic of cells undergoing apoptosis (Martin et al., J. Exp. Med., 182:1545, 1995). The redistribution of phosphatidylserine in the plasma membrane during apoptosis was measured by flow cytometry using FITC (fluorescein isothiocyanate)-conjugated annexin V (BD Pharmingen, San Diego, Calif.). MEG-01 cells, a human chronic myelogeneous leukemia cell line positive for the Philadelphia chromosome and having a BCR-ABL gene fusion, were incubated at 2.5×10^5 cells/ml for 48 hours with 5.3, 26.5 and 53.0 μM final concentrations of SEQ ID NO:1, SEQ ID NO:2, SEQ ID NO:5, SEQ ID NO:6 and cholesteryl-TEG phosphoramidite molecule. The percentage of cells in apoptosis after exposure to the SEQ ID NOs:1, 2, 5, 6, or cholesteryl-TEG phosphoramidite treatment is reported in Table 2. The percentage of apoptosis in untreated MEG-01 cells was 12%.

Hs578T cells [3] = assay: Release of nuclear mitotic apparatus protein (NuMA) by Hs578T cells (ELISA); type: cell-based, human; settings: Hs578T monolayer, 53 μM, 72 hrs; percentage increase
Protocol: Hs578T cells were cultured as monolayer in negative control conditions or with 53 μM final concentraition of SEQ ID NO:2, 53 μM of SEQ ID NO:6 for 72 hrs. The release of nuclear mitotic apparatus protein (NuMA) was used as a measure of apoptosis. NuMA was determined using a commercial ELISA kit following the manufacturer's protocol. Results are shown in Table 11 and are expressed as the percentage increase in NuMA release compared to control conditions based on optical density measurements.

HIG-82 cells [4] = assay: Apoptosis by nuclear DNA fragmentation (TUNEL, flow cytometry) in HIG-82 cells; type: cell-based, rabbit; settings: 53 μM; for Percentage of cells containing DNA fragmentation (cells in apoptosis) in HIG-82 cells: 48 hours, TUNEL; for Induction of apoptosis in HIG-82 cells (in words): fragmented nuclear DNA
Protocol: Adherent HIG-82 cells were incubated at 1.0×10^5 cells/ml for 48 hours with 53 μM final concentration of SEQ ID NO:1, SEQ ID NO:2, SEQ ID NO:5 or SEQ ID NO:6. Since phosphatidylserine/annexin V detection of apoptosis was not reliable after adherent cell harvesting techniques, such as trypsinization (van Engeland, Cytometry, 31:1, 1998), apoptosis in HIG-82 cells was evaluated using flow cytometry by the detection of fragmented DNA by terminal deoxynucleotidyl transferase enzyme-mediated bromodeoxyuridine triphosphate-biotin nick end-labeling (TUNEL) using a commercial assay (APO-BRDU™ kit; BD Pharmingen). The percentage of cells containing nuclear DNA fragmentation was determined. After 24 hours, untreated HIG-82 cells were essentially negative for nuclear DNA fragmentation.

HIG-82 cells [5] = assay: HIG-82 synovial cell proliferation (MTT reduction); type: cell-based, rabbit; settings: 53 μM, 48 hours
Protocol: Adherent HIG-82 cells, a synovial cell line, were incubated at 10×10^5 cells/ml for 48 hours with 53 μM (final concentration) of SEQ ID NO:2, SEQ ID NO:3, SEQ ID NO:4, SEQ ID NO:6, SEQ ID NO:7, or SEQ ID NO:8. Cellular proliferation was measured using dimethylthiazol-diphenyl-tetrazolium (MTT) reduction (Mosman et al., J. Immunol. Methods 65:55, 1983). MTT was measured at a wavelength of 570 nm using a multiple spectrophotometer reader (ELX800, Bio-TEK, Instruments Inc., Winooski, Vt.). The percentage of inhibition, calculated as […]

MDA-MB-231 cells = assay: Release of nuclear mitotic apparatus protein (NuMA) by MDA-MB-231 cells (ELISA); type: cell-based, human; settings: MDA-MB-231 monolayers, 53 μM, 72 hrs; percentage increase
Protocol: MDA-MB-231 cells were cultured as monolayers in respective control media, with 53 μM final concentration of SEQ ID NO:1 or 53 μM final concentration of SEQ ID NO:5 for 72 hrs. The release of nuclear mitotic apparatus protein (NuMA) was used as a measure of apoptosis. NuMA was determined using a commercial (ELISA kit (Oncogene, Cambridge, Mass.) following the manufacturer's protocol. Results are shown in Table 10 and are expressed as the percentage increase in NuMA release compared to respective controls based on optical density measurements.

Mpanc-96 cells = assay: MATRIGEL outgrowth after 1 hr pre-incubation, Mpanc-96; type: cell-based, human; settings: Mpanc-96, 53 μM pre-incubation 1 hr, 3 days on MATRIGEL, FIG. 1
Protocol: (§1) Various in vitro and in vivo assays may be used to evaluate the influence of the extracellular microenvironment on behavior of normal cells and tumor cells. Such assays may employ MATRIGEL® (Becton Dickinson, Franklin Lakes, N.J.), which is a solubilized basement membrane preparation extracted from the Engelbreth-Holm-Swarm murine sarcoma.
(§2) MCF-7, MDA-MB-231 (MDA-231), Hs578T and Mpanc-96 cells were cultured separately in regular culture medium, trypsinized, and counted. 100×10^3 of MDA-231 cells, 100×10^3 of Hs578T cells, 150×10^3 of MCF-7 cells and 150×10^3 of Mpanc-96 cells were separately pre-incubated for 1 hr at 37° C. in a final concentration of 53 μM of SEQ ID NO:1, 53 μM of SEQ ID NO:5 or RCM, and plated on top of MATRIGEL®-coated plates (MATRIGEL® Basement membrane matrix coated cellware 24-well plate,) for 3 days. Plates were fixed with 10% formalin. Digital photographs of the cells in the 24-well plates were taken using a Nikon Coolpix 990 digital camera (Nikon Corporation, Tokyo, Japan) connected to a Nikon inverted microscope model TMS.

Hs578T cells [6] = assay: MATRIGEL outgrowth after 1 hr pre-incubation, Hs578T; type: cell-based, human; settings: 53 μM pre-incubation 1 hr, 3 days on MATRIGEL, FIG. 1 and FIG. 2
Protocol: as §1, §2
(§3) MDA-MB-231 (MDA-231) and Hs578T were cultured in regular culture medium, trypsinized and counted. 100×10^3 of MDA-MB-231 cells or 100×10^3 of Hs578T cells, were separately pre-incubated for 1 hr at 37° C. in a final concentration of 53 μM of SEQ ID NO:4, 53 μM of SEQ ID NO:8 or RCM and plated on MATRIGEL®-coated plates for 3 days. Plates were fixed with 10% formalin. Digital photographs of the cells in the 24-well plates were taken using a Nikon Coolpix 990 digital camera (Nikon Corporation, Tokyo, Japan) connected to a Nikon inverted microscope model TMS.

[7] = system: MDA-MB-231 (MDA-231) cells; assay: MATRIGEL outgrowth after 1 hr pre-incubation, MDA-231; type: cell-based, human; settings: MDA-231, 53 μM pre-incubation 1 hr, 3 days on MATRIGEL, FIG. 1 and FIG. 2
Protocol: as §1, §2, §3

MCF-7 cells = assay: MATRIGEL outgrowth after 1 hr pre-incubation, MCF-7; type: cell-based, human; settings: MCF-7, 53 μM pre-incubation 1 hr, 3 days on MATRIGEL, FIG. 1
Protocol: as §1, §2

Substance | Induction of cell cycle arrest in MEG-01 cells (in words) (MEG-01 cells [1]; 53 μM) | % of cells in phase SM (MEG-01 cells [1]; MEG-01, 53 μM, untreated 10.8) | % of cells in phase SL + G2/M (MEG-01 cells [1]; MEG-01, 53 μM, untreated 17.8) | % of cells in phase G0/G1 + SE (MEG-01 cells [1]; MEG-01, 53 μM, untreated 71.4) | Percentage of positive cells for phosphatidylserine (cells in apoptosis) in MEG-01 cells (MEG-01 cells [2]; 5.3 μM) | Percentage of positive cells for phosphatidylserine (cells in apoptosis) in MEG-01 cells (MEG-01 cells [2]; 26.5 μM) | Percentage of positive cells for phosphatidylserine (cells in apoptosis) in MEG-01 cells (MEG-01 cells [2]; 53.0 μM) | Induction of apoptosis in MEG-01 cells (in words) (MEG-01 cells [2]) | NuMA release compared to control (%) (Hs578T cells [3]) | Percentage of cells containing DNA fragmentation (cells in apoptosis) in HIG-82 cells (HIG-82 cells [4]) | Induction of apoptosis in HIG-82 cells (in words) (HIG-82 cells [4]) | Inhibition of proliferation of synovial HIG-82 cells (in words) (HIG-82 cells [5]) | Inhibition of HIG-82 cell proliferation, inhibition (%) (HIG-82 cells [5]; MTT) | NuMA release compared to controls (%) (MDA-MB-231 cells) | Formation of 3-dimensional structures / cell morphology on MATRIGEL (Mpanc-96 cells) | Formation of 3-dimensional structures / cell morphology on MATRIGEL (Hs578T cells [6]) | Formation of 3-dimensional structures / cell morphology on MATRIGEL [7] | Formation of 3-dimensional structures / cell morphology on MATRIGEL (MCF-7 cells)
5′ OH-GGGAGG-OH 3′ (listed as DNA, chemistry not fully specified) [SEQ ID NO:2] | inactive | 11.6% | 19.8% | 68.6% | 12% | 12% | 12% | inactive | +8% | 1% | inactive | did not inhibit proliferation | 6% | – | – | – | – | –
5′ OH-GGGTGG-OH 3′ [SEQ ID NO:1] | – | – | – | – | 12% | 12% | 12% | inactive | – | 1% | inactive | – | – | +5% | did not change cell morphology | did not change cell morphology | did not change cell morphology | did not change cell morphology

— patent publication US7635686B2, “Therapeutically useful triethyleneglycol cholesteryl oligonucleotides” (Bioniche Life Sciences, Inc., priority 2001, dated 2009)
